{"source": "patent US5480885A", "about": "“Ergoline derivatives of 1-propinylamine, a process for the manufacture thereof and the use thereof for medicaments” (priority 1991, dated 1996)", "key": {"[1]": {"system": "isolated rabbit thoracic aorta", "assay": "constriction of the isolated rabbit thoracic aorta", "details": "for EC50: Oryctolagus cuniculus"}, "[2]": {"target": "T1, isolated rabbit thoracic aorta (serotonin) (Oryctolagus cuniculus, UniProt G1SYA7)", "T1 construct": "isolated rabbit thoracic aorta; from tissue; host or cells: isolated rabbit thoracic aorta", "T1 sequence (G1SYA7 entry or part of it)": "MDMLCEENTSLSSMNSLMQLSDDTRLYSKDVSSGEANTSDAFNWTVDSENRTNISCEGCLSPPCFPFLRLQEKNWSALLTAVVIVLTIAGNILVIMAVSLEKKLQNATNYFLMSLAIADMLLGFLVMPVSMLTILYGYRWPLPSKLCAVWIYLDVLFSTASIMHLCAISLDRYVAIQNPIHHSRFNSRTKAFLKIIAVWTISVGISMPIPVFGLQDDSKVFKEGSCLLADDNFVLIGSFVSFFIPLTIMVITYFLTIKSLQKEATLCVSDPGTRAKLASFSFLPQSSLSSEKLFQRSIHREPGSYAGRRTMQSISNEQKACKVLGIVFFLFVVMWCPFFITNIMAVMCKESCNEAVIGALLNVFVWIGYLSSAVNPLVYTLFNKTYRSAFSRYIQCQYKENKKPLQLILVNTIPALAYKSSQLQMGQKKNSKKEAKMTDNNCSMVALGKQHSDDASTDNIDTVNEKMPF", "details": "for mode of inhibition of serotonin constriction: in words; for Kb: vs serotonin, read-out: pA2 (converted)"}, "isolated rat uterus": {"system": "isolated rat uterus", "assay": "uterotonic activity (isolated rat uterus)", "details": "in words"}, "[3]": {"system": "pentobarbital-anesthetized normotensive rats", "assay": "blood pressure and heart rate in pentobarbital-anesthetized normotensive rats", "type": "in vivo, rat", "details": "450 μg/kg i.v."}, "pithed rats": {"system": "pithed rats", "assay": "vasoconstriction / diastolic pressure in pithed rats (Gillespie)", "type": "in vivo, rat"}, "5-HT2 receptors [4]": {"target": "T2, 5-HT2 receptors (Mus musculus, UniProt P35363)", "T2 construct": "The head twitch model in mice; from tissue; host or cells: living mice (central nervous system)", "T2 sequence (P35363 whole entry)": "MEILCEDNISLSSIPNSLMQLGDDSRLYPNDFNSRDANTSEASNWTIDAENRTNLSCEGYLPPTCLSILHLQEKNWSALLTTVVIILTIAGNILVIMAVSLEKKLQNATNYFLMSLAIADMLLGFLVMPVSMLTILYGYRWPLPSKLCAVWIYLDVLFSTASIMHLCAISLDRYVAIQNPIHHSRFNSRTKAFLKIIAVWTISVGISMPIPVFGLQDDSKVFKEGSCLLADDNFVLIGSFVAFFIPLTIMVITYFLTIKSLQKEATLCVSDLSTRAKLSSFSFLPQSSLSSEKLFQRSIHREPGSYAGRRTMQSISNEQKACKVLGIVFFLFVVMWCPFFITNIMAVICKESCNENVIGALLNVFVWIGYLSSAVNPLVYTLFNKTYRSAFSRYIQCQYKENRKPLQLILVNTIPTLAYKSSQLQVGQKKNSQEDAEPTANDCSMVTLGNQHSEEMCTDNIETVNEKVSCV", "assay": "head twitch response caused by the compound in mice", "type": "in vivo", "excerpt": "(§1) The head twitch model in mice represents an experimental model for determining the hallucinogenic action of a compound (the method was described by Handley and Singh, Br.J.Pharmacol., 86, 297-303, 1985). It is believed that the response is conveyed via the 5-HT2 receptors."}, "pupil": {"system": "pupil", "assay": "dilatation of the pupil in mice (Pulewka)", "type": "in vivo", "details": "in words"}, "[5]": {"assay": "acute toxicity in mice (Miller and Tainter)", "details": "mouse, in vivo, intravenous", "excerpt": "Exptl. Biol. Med. 57, 261 (1944)."}, "[6]": {"system": "isolated rat uterus (serotonin)", "assay": "inhibition of serotonin-induced contractions of the isolated rat uterus", "details": "serotonin-induced contractions (serotonin 2.47×10^-8 M where printed)"}, "uterus in rats": {"system": "uterus in rats", "assay": "blocking of spontaneous uterus contractions in rats", "details": "Rattus norvegicus; 1000 ng/ml", "protocol": "At a concentration of 1000 ng/ml it caused a 100% blocking of spontaneous uterus contractions in rats (see Jalon)."}, "5-HT2 receptors [7]": {"target": "T2, 5-HT2 receptors", "assay": "inhibition of the head twitch response after 5-HTP/carbidopa", "type": "in vivo, mice", "details": "ip, mice, 5-hydroxytryptophan/carbidopa, read-out: ID50, inhibition of head twitch response", "protocol": "The substance was injected 15 minutes prior to DL-5-HTP. The head twitch was recorded from 30 to 35 minutes after the DL-5-HTP injection (modified method according to Handley and Singh, Br. J. Pharmacol. 86, 297 (1985)).\nThe compound was injected 15 minutes prior to L-5-HTP (modified method according to Handley and Singh, Br. J. Pharmacol. 86, 297 (1985)).\nas §1"}, "[8]": {"target": "T3, 5-HT1A serotoninergic receptor (Homo sapiens, UniProt P08908)", "T3 sequence (P08908 1-422)": "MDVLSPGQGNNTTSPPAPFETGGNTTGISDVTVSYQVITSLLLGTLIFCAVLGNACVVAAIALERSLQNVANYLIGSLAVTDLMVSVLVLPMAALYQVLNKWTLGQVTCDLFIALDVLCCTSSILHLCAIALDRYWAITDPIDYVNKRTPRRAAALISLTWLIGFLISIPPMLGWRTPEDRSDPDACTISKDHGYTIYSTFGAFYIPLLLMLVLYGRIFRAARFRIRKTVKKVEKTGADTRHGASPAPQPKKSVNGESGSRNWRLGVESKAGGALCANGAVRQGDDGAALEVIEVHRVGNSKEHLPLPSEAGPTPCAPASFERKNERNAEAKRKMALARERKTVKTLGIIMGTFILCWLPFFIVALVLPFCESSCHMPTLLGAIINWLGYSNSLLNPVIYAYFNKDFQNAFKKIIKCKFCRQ", "assay": "binding at [^3 H] 8-OH-DPAT binding site", "excerpt": "(§2) Binding affinities of the compounds of Examples 1"}, "[9]": {"target": "T3, 5-HT1A serotoninergic receptor", "assay": "functional test, 5-HT1A serotoninergic receptor", "details": "in words"}, "sigma receptor [10]": {"system": "sigma receptor", "assay": "binding at [^3 H] DTG binding site", "details": "in words"}, "sigma receptor [11]": {"system": "sigma receptor", "assay": "functional test, sigma receptor", "details": "in words"}, "5-HT2 receptor": {"target": "5-HT2 receptor (Homo sapiens, UniProt P28223)", "sequence (P28223 whole entry)": "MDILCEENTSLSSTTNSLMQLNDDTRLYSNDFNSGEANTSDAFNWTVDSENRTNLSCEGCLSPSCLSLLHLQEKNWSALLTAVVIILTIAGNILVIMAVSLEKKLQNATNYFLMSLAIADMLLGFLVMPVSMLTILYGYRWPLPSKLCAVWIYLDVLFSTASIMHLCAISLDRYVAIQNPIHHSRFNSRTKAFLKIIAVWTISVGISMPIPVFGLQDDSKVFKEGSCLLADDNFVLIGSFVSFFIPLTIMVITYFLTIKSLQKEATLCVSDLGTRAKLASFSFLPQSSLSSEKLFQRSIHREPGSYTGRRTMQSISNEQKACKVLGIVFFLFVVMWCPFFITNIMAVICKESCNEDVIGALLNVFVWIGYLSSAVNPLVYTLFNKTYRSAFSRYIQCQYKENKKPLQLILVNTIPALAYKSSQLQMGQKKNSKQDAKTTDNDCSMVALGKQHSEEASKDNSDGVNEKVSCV", "assay": "biochemical", "type": "binding", "excerpt": "as §2"}, "D2 receptor": {"target": "D2 receptor (Homo sapiens, UniProt P14416)", "sequence (P14416 whole entry)": "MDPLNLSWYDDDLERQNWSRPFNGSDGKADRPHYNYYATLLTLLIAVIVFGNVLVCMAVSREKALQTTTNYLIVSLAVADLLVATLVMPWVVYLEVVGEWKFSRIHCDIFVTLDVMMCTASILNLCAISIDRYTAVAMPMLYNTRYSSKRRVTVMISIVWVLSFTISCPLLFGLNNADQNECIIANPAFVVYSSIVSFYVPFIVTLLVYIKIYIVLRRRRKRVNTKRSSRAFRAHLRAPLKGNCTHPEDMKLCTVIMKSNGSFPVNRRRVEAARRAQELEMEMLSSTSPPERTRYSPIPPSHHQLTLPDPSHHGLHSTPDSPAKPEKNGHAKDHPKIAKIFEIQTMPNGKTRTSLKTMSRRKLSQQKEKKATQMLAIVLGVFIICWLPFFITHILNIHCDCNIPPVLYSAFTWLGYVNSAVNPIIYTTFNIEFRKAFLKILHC", "assay": "binding, [^3 H]Raclopride", "excerpt": "as §2"}, "5-HT1A receptors [12]": {"system": "5-HT1A receptors", "assay": "spontaneous tail-flicks in rats", "type": "in vivo, rat", "details": "0.08 to 0.63 mg/kg s.c. (Example 1); 5.0 mg/kg s.c. (Example 2); in words"}, "5-HT1A receptors [13]": {"system": "5-HT1A receptors", "assay": "inhibition of 8-OH-DPAT-caused spontaneous tail-flick in rats", "type": "in vivo, rat", "details": "in words"}}, "note": "Entries after “also recorded” stand apart in the source; their conditions may differ. Like-named read-outs stand apart in the source and are kept apart here."}
{"smiles": "C#CCN(C)C(=O)[C@@H]1C=C2c3cccc4[nH]cc(c34)C[C@H]2N(C)C1", "note": "[Example 4, 9,10-Didehydro-N-methyl-N-(2'-propinyl)-6-methylergoline-8β-carboxamide]", "values": [{"measurement": "receptors responsible for vasoconstriction", "setting": "[1]; 0.39 μM (EC50)", "value": "predominantly the result of the activation of α1 -adrenergic receptors and to a lesser extent of the activation of 5-HT2 receptors"}, {"measurement": "EC50", "setting": "[1]; constriction of the isolated rabbit thoracic aorta, read-out: pD2 (converted)", "value": 0.389, "unit": "µM"}, {"measurement": "EC50", "setting": "[1]; vasoconstriction, read-out: EC50", "value": 0.39, "unit": "µM"}, {"measurement": "constriction of the isolated rabbit thoracic aorta", "setting": "[1]; in words", "value": "caused a constriction of the isolated rabbit thoracic aorta"}, {"measurement": "intrinsic activity, aorta constriction", "setting": "[1]; in words, vs serotonin", "value": "comparable to that of serotonin"}, {"measurement": "mode of inhibition of serotonin constriction", "setting": "[2]", "value": "the antagonism was of competitive nature"}, {"measurement": "serotonin-antagonistic activity", "setting": "[2]; inactivated α1-adrenergic receptors, 0.01 to 0.3 μM", "value": "showed a serotonin-antagonistic activity"}, {"measurement": "effect on maximum activity of serotonin", "setting": "[2]; inactivated α1-adrenergic receptors, higher doses", "value": "noticeable decrease of the maximum activity of serotonin"}, {"measurement": "Kb", "setting": "[2]; inactivated α1-adrenergic receptors, smaller doses (0.1 μM)", "value": 0.00427, "unit": "µM"}, {"measurement": "uterotonic activity", "setting": "isolated rat uterus", "value": "lesser than the one of methylergometrine maleate"}, {"measurement": "respiratory troubles", "setting": "[3]", "value": "respiratory troubles could be perceived"}, {"measurement": "effect on carotid artery pressure", "setting": "[3]; in words", "value": "statistically non-significant changes in carotid artery pressure"}, {"measurement": "reduction in heart rate", "setting": "[3]; vs initial level", "value": 20, "unit": "%"}, {"measurement": "peripheral vasoconstriction", "setting": "pithed rats; 450 μg/kg i.v., in words", "value": "transient, yet extraordinarily strong peripheric vasoconstriction"}, {"measurement": "head twitch response caused by compound", "setting": "5-HT2 receptors [4]; 0.125 to 4 mg/kg i.p., in words", "value": "caused a head twitch response in mice; also recorded: at higher doses the activity decreased (autoinhibitory effect)"}, {"measurement": "dose of maximum head twitch activity", "setting": "5-HT2 receptors [4]; i.p.", "value": 1, "unit": "mg/kg"}, {"measurement": "dilatation of the pupil", "setting": "pupil; dose-dependent, dose not given", "value": "dose-dependent dilatation of the pupil"}, {"measurement": "behavioural effects in mice", "setting": "pupil", "value": "an increased activity, tremor and piloerection"}, {"measurement": "LD50", "setting": "[5]", "value": 55, "unit": "mg/kg"}]}
{"smiles": "C#CCNC(=O)[C@@H]1C=C2c3cccc4[nH]c(Br)c(c34)C[C@H]2N(C)C1", "note": "[Example 2, 2-Bromo-9,10-didehydro-N-(2'-propinyl)-6-methylergoline-8β-carboxamide]", "values": [{"measurement": "mode of inhibition of serotonin constriction", "setting": "[2]", "value": "competitively inhibited"}, {"measurement": "Kb", "setting": "[2]", "value": 0.00741, "unit": "µM"}, {"measurement": "IC50", "setting": "[6]", "value": 0.0269, "unit": "µM"}, {"measurement": "inhibition at 1 µg/mL", "setting": "uterus in rats", "value": 100, "unit": "%"}, {"measurement": "duration of the transient effect", "setting": "[3]", "value": "up to 20 minutes"}, {"measurement": "maximum reduction in carotid artery pressure", "setting": "[3]; vs initial level", "value": 15, "unit": "%"}, {"measurement": "reduction in heart rate", "setting": "[3]; vs initial level", "value": 5, "unit": "%"}, {"measurement": "mean increase of the diastolic pressure", "setting": "pithed rats; 450 μg/kg i.p., vs control", "value": 20, "unit": "%"}, {"measurement": "ED50", "setting": "5-HT2 receptors [7]", "value": 8.2, "unit": "mg/kg"}, {"measurement": "dilatation of the pupil", "setting": "pupil; 5 mg/kg i.p.", "value": "marked dilatation of the pupil"}, {"measurement": "Ki", "setting": "[8]; 5-HT1A, [^3 H]8-OH-DPAT", "value": 0.206, "unit": "µM"}, {"measurement": "affinity to 5-HT1A receptor", "setting": "[8]; [^3 H] 8-OH-DPAT, in words", "value": "somewhat lower affinity; also recorded: possessed affinity"}, {"measurement": "functional activity at 5-HT1A", "setting": "[9]", "value": "did not indicate any activity"}, {"measurement": "affinity to sigma receptor", "setting": "sigma receptor [10]", "value": "possessed affinity"}, {"measurement": "functional activity at sigma receptor", "setting": "sigma receptor [11]", "value": "indicated an antagonistic activity"}, {"measurement": "Ki", "setting": "5-HT2 receptor; 5-HT2, [^3 H]Ketanserin, read-out: Ki", "value": 0.09, "unit": "µM"}, {"measurement": "affinity for 5-HT2 receptors", "setting": "5-HT2 receptor; in words", "value": "high affinity"}, {"measurement": "Ki", "setting": "D2 receptor; D2, [^3 H]Raclopride", "value": 0.044, "unit": "µM"}, {"measurement": "affinity for D2 receptors", "setting": "D2 receptor; in words", "value": "high affinity"}, {"measurement": "spontaneous tail-flick", "setting": "5-HT1A receptors [12]", "value": "did not cause a spontaneous tail-flick in rats"}, {"measurement": "inhibition of 8-OH-DPAT-caused spontaneous tail-flick", "setting": "5-HT1A receptors [13]; 0.63 to 5.0 mg/kg s.c., 8-OH-DPAT 2.5 mg/kg s.c.", "value": "strongly inhibit the spontaneous tail-flick in rats"}, {"measurement": "effect in tail-flick inhibition model compared with buspirone", "setting": "5-HT1A receptors [13]", "value": "very similar to that of buspirone"}]}
